Laboratory results reported in US20240300886A1, “ARYLCYCLOHEXYLAMINE DERIVATIVES AND THEIR USE IN THE TREATMENT OF PSYCHIATRIC DISORDERS” (GILGAMESH PHARMACEUTICALS, INC., priority 2021, published 2024).
Like-named read-outs stand apart in the source and are kept apart here.

Assays:
[1] = Metabolic stability in rat liver microsomes (RLM); type: in vitro ADME, Sprague Dawley rats; conditions: male, Sprague Dawley, rat, pooled rat liver microsomes, pH 7.4, 1 μM compound, 0.50 mg protein/mL, NADPH
Method: (§1) RLM Stability. Pooled RLM from male Sprague Dawley rats (XenoTech R1000) were used. Microsomal incubations were carried out in multi-well plates. Liver microsomal incubation medium consisted of PBS (100 mM, pH 7.4), MgCl2 (1 mM), and NADPH (1 mM), with 0.50 mg of liver microsomal protein per mL. Control incubations were performed by replacing the NADPH-cofactor system with PBS. Test compounds (1 μM, final solvent concentration 1.0%) were incubated with microsomes at 37° C. with constant shaking. Six time points over 60 minutes were analyzed, with 60 μL aliquots of the reaction mixture being drawn at each time point. The reaction aliquots were stopped by adding 180 μL of cold (4° C.) acetonitrile containing 200 ng/mL tolbutamide and 200 ng/mL labetalol as internal standards (IS), followed by shaking for 10 minutes, and then protein sedimentation by centrifugation at 4,000 rpm for 20 minutes at 4° C. Supernatant samples (80 μL) were diluted with water (240 μL) and analyzed for parent compound remaining using a fit-for-purpose liquid chromatography-tandem mass spectrometry (LC-MS/MS) method.
(§2) Data Analysis. The elimination constant (kel), half-life (t1/2) and intrinsic clearance (Clint) were determined in a plot of […] versus time, using linear regression analysis.

[2] = Metabolic stability in human liver microsomes (HLM); type: in vitro ADME; conditions: 0.50 mg protein/mL, NADPH; for Clint: 1 μM compound; for half-life at 1 μM: both sexes, human, pooled human liver microsomes, pH 7.4, 1 μM compound
Method: HLM Stability. Pooled HLM from adult male and female donors (Corning 452117) were used. Microsomal incubations were carried out in multi-well plates. Liver microsomal incubation medium consisted of PBS (100 mM, pH 7.4), MgCl2 (1 mM), and NADPH ([…]), with 0.50 mg of liver microsomal protein per mL. Control incubations were performed by replacing the NADPH-cofactor system with PBS. Test compounds (1 μM, final solvent concentration 1.0%) were incubated with microsomes at 37° C. with constant shaking, Six time points over 60 minutes were analyzed, with 60 μL aliquots of the reaction mixture being drawn at each time point. The reaction aliquots were stopped by adding 180 μL of cold (4° C.) acetonitrile containing 200 ng/mL tolbutamide and 200 ng/mL labetalol as internal standards (IS), followed by shaking for 10 minutes, and then protein sedimentation by centrifugation at 4,000 rpm for 20 minutes at 4° C. Supernatant samples (80 μL) were diluted with water (240 μL) and analyzed for parent compound remaining using a fit-for-purpose liquid chromatography-tandem mass spectrometry (LC-MS/MS) method.
as §2

[3] = Metabolic stability in mouse liver microsomes (MLM); type: in vitro ADME, CD-1 mice; conditions: male, CD-1, mouse, pooled mouse liver microsomes, pH 7.4, 1 μM compound, 0.50 mg protein/mL, NADPH
Method: as §1, with “MLM” for “RLM”, “CD-1 mice” for “Sprague Dawley rats”, “M1000)” for “R1000)”
Data Analysis. The elimination constant (kel), half-life (t1/2) and intrinsic clearance (Clint) were determined in a plot of ln(AUC) versus […], using linear regression analysis.

[4] = Oral bioavailability in mice, Method B (plasma and brain PK); type: in vivo, C57BL/6 mice; conditions: for half-life / Cmax / AUC(0-inf): male, C57BL/6; for half-life / Cmax / AUC(0-inf) / AUC0-inf (iv) / AUC0-inf (po) / F: Method B; for AUC(0-inf) / AUC0-inf (iv) / AUC0-inf (po): values represent AUC0-last; for F: 1 mg/kg
Method: Animals. Male C57BL/6 mice were used in these studies. Animals were randomly assigned to treatment groups and were fasted for 4 h before dosing.
Drugs. Test compounds were dissolved in a vehicle consisting of normal saline (for compounds used as the HCl salt) or normal saline slightly acidified with aq. HCl (for freebase compounds). They were then administered intravenously (iv) or orally (po) at a dose of 1 or 10 mg/kg (calculated based on freebase), as indicated, and at a volume of 5 mL/kg body weight. Compounds were tested as the racemates or pure enantiomers, as indicated.
Sample Collection and Bioanalysis. Blood samples (approximately 60 μL) were collected under light isoflurane anesthesia (Surgivet®) from the retro orbital plexus at 0.08, 0.25, 0.5, 1, 2, 4, 8, and 24 h (4 animals per time point). Immediately after blood collection, plasma was harvested by centrifugation at 4,000 rpm for 10 min at 4° C. and samples were stored at −70±10° C. until bioanalysis. Following blood collection, animals were immediately sacrificed, the abdominal vena-cava was cut open, and the whole body was perfused from the heart using 10 mL of normal saline, and brain samples were collected from all animals. After isolation, brain samples were rinsed three times in ice-cold normal saline (for 5-10 seconds/rinse using ˜5-10 mL, normal saline in disposable petri dish for each rinse) and dried on blotting paper. Brain samples were homogenized using ice-cold phosphate-buffered saline (pH 7.4). Total homogenate volume was three times the tissue weight. All homogenates were stored at −70±10° C. until bioanalysis. For bioanalysis, 25 μL aliquots of plasma/brain study samples or spiked plasma/brain calibration standards were added to individual pre-labeled micro-centrifuge tubes followed by 100 μL of an internal standard solution (glipizide, 500 ng/mL in acetonitrile) except for blanks, where 100 μL of acetonitrile was added. Samples were vortexed for 5 minutes and then centrifuged for 10 minutes at 4,000 rpm at 4° C. Following centrifugation, 100 μL of each clear supernatant was transferred to a 96 well plate and analyzed with a fit-for-purpose LC-MS/MS method, with authentic samples of each analyte used for calibration and identification.
Data Analysis. Pharmacokinetic parameters were estimated using the non-compartmental analysis tool of Phoenix® WinNonlin software (Ver 8.0).

[5] = mouse brain, 1 mg/kg iv, read-out: t1/2 (iv)
[6] = mouse plasma, 1 mg/kg iv, read-out: t1/2 (iv)
[7] = mouse plasma, 1 mg/kg iv, read-out: AUC0-inf (iv) (converted)
[8] = mouse plasma, 1 mg/kg po, read-out: t1/2 (po)
[9] = mouse plasma, 1 mg/kg po, read-out: AUC0-inf (po) (converted)
[10] = mouse brain, calculated based on brain exposure (AUC0-last)
[11] = mouse plasma, based on AUC0-last
[12] = mouse brain, 1 mg/kg po, read-out: t1/2 (po)

| Structure (SMILES) | half-life at 1 μM [1] | microsomal CLint at 1 μM [1] | Clint [2] | half-life at 1 μM [2] | half-life at 1 μM [3] | microsomal CLint at 1 μM [3] | half-life [4, 5] | Cmax ([4]; mouse brain, 1 mg/kg po) | half-life [4, 6] | AUC(0-inf) [4, 7] | Cmax ([4]; mouse plasma, 1 mg/kg po) | half-life [4, 8] | AUC(0-inf) [4, 9] | AUC0-inf (iv) ([4]; mouse brain, 1 mg/kg iv) | AUC0-inf (po) ([4]; mouse brain, 1 mg/kg po) | F [4, 10] | F [4, 11] | half-life [4, 12] | brain exposure after oral administration compared to enantiomer 2S ([4]; mice) |
| --- | --- | --- | --- | --- | --- | --- | --- | --- | --- | --- | --- | --- | --- | --- | --- | --- | --- | --- | --- |
| CNC1(c2ccccc2Cl)CCCCC1=O (racemic) [racemic ketamine, ketamine] | 5.6 min | 294 µL/min/mg | 25.5 μL/min/m | 54.4 min | 15.4 min | 90.1 µL/min/mg | – | – | – | – | – | – | – | – | – | – | – | – | – |
| N[C@@]1(c2ccc(F)cc2)CCCCC1=O [Compound 1R, (R)-2-amino-2-(4-fluorophenyl)cyclohexan-1-one] | > 145 min | < 9.6 µL/min/mg | <9.6 μL/min/m | > 145 min | > 145 min | < 9.6 µL/min/mg | – | – | – | – | – | – | – | – | – | – | – | – | – |
| N[C@]1(c2ccc(F)cc2)CCCCC1=O [Compound 1S, (S)-2-amino-2-(4-fluorophenyl)cyclohexan-1-one] | > 145 min | < 9.6 µL/min/mg | <9.6 μL/min/m | > 145 min | > 145 min | < 9.6 µL/min/mg | 36.6 min | 82.2 ng/g | 86.4 min | 501 ng·h/mL | 394 ng/mL | 82.2 min | 470 ng·h/mL | 14,776 ng*min/g | 6,557 ng*min/g | 44% | 94% | – | – |
| CN[C@@]1(c2ccc(F)cc2)CCCCC1=O [Compound 2R, (R)-2-(4-fluorophenyl)-2(methylamino)cyclohexan-1-one] | 78.1 min | 17.8 µL/min/mg | <9.6 μL/min/m | > 145 min | 127 min | 10.9 µL/min/mg | 23.4 min | 177 ng/g | 45 min | 96.3 ng·h/mL | 53.6 ng/mL | 29.4 min | 38.8 ng·h/mL | 17,791 ng*min/g | 5,890 ng*min/g | 33% | 40% | 36 min | substantially higher brain exposure |
| CN[C@]1(c2ccc(F)cc2)CCCCC1=O [Compound 2S, (S)-2-(4-fluorophenyl)-2-(methylamino)cyclohexan-1-one] | 60.8 min | 22.8 µL/min/mg | <9.6 μL/min/m | > 145 min | 107 min | 12.9 µL/min/mg | 21.6 min | 80.4 ng/g | 54.6 min | 119 ng·h/mL | 51.7 ng/mL | 50.4 min | 46.6 ng·h/mL | 21,532 ng*min/g | 4,264 ng*min/g | 20% | 39% | 42 min | – |
| N[C@]1(c2cccc(F)c2)CCCCC1=O [Compound 3S] | 94.6 min | 14.6 µL/min/mg | <9.6 μL/min/m | > 145 min | 123 min | 11.3 µL/min/mg | 26.4 min | 112 ng/g | 101 min | 608 ng·h/mL | 640 ng/mL | 29.4 min | 542 ng·h/mL | 18,797 ng*min/g | 7,418 ng*min/g | 39% | 89% | 40.8 min | – |
